Test results from patent US20100279941A1, “CD36 MODULATION AND USES THEREOF” (priority 2009, published 2010).
Numbered stars: 1 amine (or outer) side, 2 acyl side, 3 side chain; on linkers, the order of the positions; unused ones are H or OH. Square brackets hold non-standard residues; d marks the D form. Peptide text beside a SMILES is read from it. azaPhe = O=C(N(Cc1ccccc1)N[*:1])[*:2]; azaPro = O=C(N1CCCN1[*:1])[*:2]

Assays:
Type in all cases: in vivo
[1] = system: CD36^+/+ and CD36^−/− mice; assay: Area at risk and infarct size after 30-min LCAL and 48 hours reperfusion (Evans blue/TTC)
From the text: Animals. CD36^−/− mice were generated by targeted homologous recombination and backcrossed six times to C57BI/6. Wild-type control littermates (CD36^+/+) were bred from the same cross and were therefore of identical genetic background [Febbraio et al., 2000]. Male mice, aged 23 (±1) weeks, were used for experiments. They were fed standard chow (#5075, Charles Rivers, Saint-Constant, Québec, Canada) and water ad libitum, and housed singly during treatment periods (2 or 10 weeks). Daily pharmacological treatments with 300 μg/kg of EP 80317 or CP1A(IV) or vehicle (0.9% NaCl) were done by subcutaneous (s.c.) injections.
(§1) C57BU6 mice were bred in house. Male mice, aged 23 (±1) weeks, were used for experiments. They were fed standard chow (#5075, Charles Rivers, Saint-Constant, Québec, Canada) and water ad libitum, and housed singly during treatment periods (2 weeks). Daily pharmacological treatments with 300 μg/kg (289 nmol/kg) of EP 80317 or 289 nmol/kg of CP-3(IV), 289 nmol/kg of CP-AP-4 or vehicle (0.9% NaCl) were done by subcutaneous (s.c.) injections.
(§2) Experimental model of IHD: Transient left coronary artery ligation in vivo. Mice were subjected to a transient LCAL surgery as described before, with minor modifications [Tarnayski et al., 2004]. Mice were injected i.p. with buprenorphine (0.05 mg/kg) and placed in an induction chamber with inhalation anesthesia comprised of 3% isoflurane mixed with 100% oxygen. Mice were intubated with a blunt ended 20-gauge catheter into the trachea via the mouth and mechanically ventilated at a tidal volume of 7 ml/kg at 130 respirations/min with a MiniVent™ mouse ventilator (model 845, Harvard Apparatus, Saint-Laurent, QC, Canada). Anesthesia was maintained with 1.5-2% isoflurane and the animals were kept warm using electrical heating pads during the surgical procedure. The chest was opened by a horizontal incision through the skin and muscle layers at the third intercostal space exposing the left side of the heart. […] Visual blanching distal to the coronary occlusion confirmed myocardial ischaemia. Lidocaine (6 mg/kg) was administered i.p. just following occlusion and prior to reperfusion. After 30 minutes, the PE10 tubing was removed allowing reperfusion. The lungs were reinflated and the chest wound closed layer by layer before extubation. At 6 hours following reperfusion, mice were anesthetized (isoflurane), a blood sample withdrawn, and the heart arrested in diastole by an intravenous injection of 1 M KCl (0.5 mL). Hearts were immediately frozen at −80° C. unless otherwise stated.
Evaluation of area at risk and infarct size. Two days after reperfusion, the left anterior descending (LAD) coronary artery was re-occluded at the original site and the abdominal aorta was injected retrogradly with 5% Evans blue dye to delineate the AAR by the absence of dark blue staining. The left ventricle, including the interventricular septum, was dissected and cut into transverse 1-mm slices from the apex to the base, using an acrylic matrix (Alto Inc., Hatfield, Pa., USA). The slices were incubated in 1% triphenyltetrazolium chloride solution at 37° C. for 15 min and placed in 10% neutral buffered formalin for 12 hours. Each slice was weighed and photographed on both sides with a digital camera (Nikon, Coolpix™ 4500, Mississauga, Ontario, Canada). The total LV area, AAR and IA were determined for each side of a slice by planimetric analysis using Adobe CS3 Photoshop™ software (Ottawa, ON, Canada), and averaged. The infarct weight was determined as follows: [(A1×WT1)+(A2×WT2)+(A3×WT3)+(A4×WT4) . . . ] where A and WT are the infarct area and weight of the section, respectively. The AAR weight was calculated in a similar manner, but by subtracting the blue (viable) stained zone from the weight. The results are expressed in terms of % IA/AAR, IA/LV and AAR/LV.

[2] = system: C57BL/6 mice; assay: Cardiac troponin I (cTnI) in plasma, ELISA; conditions: 48 hours post-ischemia; 2 weeks 289 nmol/kg; compared to vehicle
Experimental: as §1
as §2, with “At 6 hours following reperfusion, mice were anesthetized (isoflurane), a blood sample withdrawn, and the heart arrested in diastole by an intravenous injection of 1 M KCl (0.5 mL).” left out
Cardiac troponin I (cTnI) concentrations in plasma. cTnI plasma levels were assayed using the High Sensitivity Mouse Cardiac Troponin-I ELISA Kit (Life Diagnostics, Inc., West Chester, Pa., Cat. No. 2010-1-HSP), according to the manufacturer's instructions.

[3] = system: C57BL/6 mice; assay: Blood lactate after transient ischemia; conditions: 6-hour reperfusion; 2 weeks 289 nmol/kg; P<0.05 compared to vehicle
Experimental: as §1, §2
Blood lactate. Blood lactate was determined using the Lactate Pro Analyser (FaCT Canada Consulting Ltd, Quesnel, BC, Canada), according to the manufacturer's instructions.

Structure (SMILES) | reduction of infarct area ([1]; 2-week pretreatment, same drug regimen (300 μg/kg/d), CD36^+/+ mice, 48 hours reperfusion) [%] | area-at-risk ([1]; CD36^+/+ (C57BL/6) mice, 289 nmol/kg 2 weeks, 48 hours reperfusion, mean (±SE)) | reduction of IA/LV ratios ([1]; CD36^+/+ (C57BL/6) mice, 289 nmol/kg 2 weeks, 48 hours reperfusion, p<0.001 vs 0.9% NaCl) [%] | reduction of cardiac troponin I (cTnI) levels in plasma [2] [%] | reduction of lactate concentration in blood [3] [%] | area-at-risk ([1]; mouse, in vivo) | reduction of IA/LV ratios ([1]; mouse, in vivo) [%]
C[C@H](N)C(=O)NN(Cc1ccccc1)C(=O)N[C@@H](C)C(=O)N[C@@H](Cc1c[nH]c2ccccc12)C(=O)N[C@H](Cc1ccccc1)C(=O)N[C@@H](CCCCN)C(N)=O [CP1A(IV), Ala-AzaPhe-Ala-Trp-DPhe-Lys-NH2] (H-A[azaPhe]AW[dF]K-NH2) | 49 |  |  |  |  |  | 
NCCCC[C@H](NC(=O)[C@@H](Cc1ccccc1)NC(=O)[C@H](Cc1c[nH]c2ccccc12)NC(=O)N1CCCN1C(=O)[C@@H](Cc1c[nH]c2ccccc12)NC(=O)[C@@H](N)Cc1cnc[nH]1)C(N)=O [CP-AP-4, His-D-Trp-AzaPro-Trp-DPhe-Lys-NH2] (H-H[dW][azaPro]W[dF]K-NH2) |  | 50 (±4) % | 50 | 54 | 32 |  | 
C[C@H](N)C(=O)N[C@H](Cc1c[nH]c2ccccc12)C(=O)N[C@@H](C)C(=O)NN(Cc1ccccc1)C(=O)N[C@H](Cc1ccccc1)C(=O)N[C@@H](CCCCN)C(N)=O [CP-3(iv), Ala-D-Trp-Ala-AzaPhe-DPhe-Lys-NH2] (H-A[dW]A[azaPhe][dF]K-NH2) |  |  |  | 42 | 27 | 52 (±3) % | 56
